Results as given in a melting point compilation (Tetko et al.; mined from patent text by program, amines drawn as free bases though some values may be those of a salt).

Row | Compound | melting point [°C]
1 | CCc1cccc(C)c1NC(=O)C(C)Br (centres undefined) | 181 to 182
2 | CC(C)(C)OC(=O)N1CCN(c2ccc(Oc3cc(Cl)ccc3[N+](=O)[O-])cc2)CC1 | 124 to 125
3 | O=c1ccc(-c2ccc(OC3CCN(C4CCCC4)CC3)nc2)n[nH]1 | 233 to 237
4 | CC(=S)NCC1CN(c2ccc(C(=O)NN)c(F)c2)C(=O)O1 (centres undefined) | 177
5 | N#Cc1ccc(Oc2ccc(CC(=O)OCc3ccccc3)cc2)nc1 | 96 to 97
6 | O=S(=O)(C(=CN=c1ccc(Br)cn1Cc1ccccc1)S(=O)(=O)c1ccccc1)c1ccccc1 | 216 to 217
7 | CCOC(=O)C1=C(C)NC(C)=C(C(=O)OCC)C1c1ccccc1[N+](=O)[O-] | 120 to 121
8 | C=Cc1ccc(CSCCO)cc1 | 44 to 45.5
9 | COc1cc(Cl)c(C=O)c(Cl)c1 | 107 to 109
10 | O=[N+]([O-])c1ccc(-c2ccc(C(O)CCl)o2)cc1 (centres undefined) | 111 to 113
11 | COc1ccc(Cc2nccc3c4c(ccc23)OCO4)cc1OC | 111
12 | Cc1ccc(-c2nc(N)ncc2-c2ccc(=O)[nH]n2)cc1 | 249
13 | COC(=O)c1ccc(-c2ccc(C#N)cc2)nc1 | 142 to 144
14 | CC(=CC(=O)O)Sc1c[nH]c2ccccc12 | 201 to 202
15 | CNC(=O)Nc1ccc(OCC2CCN(c3ccncc3)CC2)cc1 | 222 to 224
16 | O=CC1=Cc2cc(-c3ccccc3)ccc2OC1 | 108 to 110
17 | C[C@H](Nc1nc(N=[N+]=[N-])nc(Cl)c1-c1c(F)cc(F)cc1F)C(F)(F)F | 152 to 154
18 | CCCS(=O)(=O)c1cccnc1S(N)(=O)=O | 153 to 157
19 | CC(C)(O)c1nnc2ccc(-c3c(-c4ccc(F)cc4F)nc4occn34)nn12 | 258 to 260
20 | COc1ccc(-c2cnc3[nH]cc(C(=O)C(C)(C)C)c3n2)cc1N1CCCC1 | 211 to 213
21 | CCCCCCCCCCCCCCCCOCC(O)CCSCCCN(C)C (centres undefined) | 30 to 32
22 | Cc1nc(NC(=O)c2cnn3c(C(F)(F)F)cc(-c4ccc(C(F)(F)F)cc4)nc23)sc1S(=O)(=O)N1CCC(O)C1 (racemic) | 300
23 | CC(C)n1cc(-c2ccc(Oc3ccccc3)c(CO)c2)c2c(Cl)ncnc21 | 157 to 159
24 | N=C(NO)c1ccc(-c2ccc(-c3ccc(C(=N)NO)o3)o2)cc1 | 205 to 206
25 | COCCNC(=O)c1ccnc(-c2cccc3cc(Cc4cccc(C(F)(F)F)c4)sc23)c1 | 108 to 109

Row | Compound | melting point [°C]
26 | O=c1c2c[nH]c3c(c-2nn1-c1ccc(Cl)cc1)CSC3 | > 330
27 | Fc1ccc2c(-c3ccc(OC[C@H]4CO4)cc3)noc2c1 | 132 to 133
28 | COc1ccc(C(=O)N2CCC(Nc3nccc(-c4c(-c5ccc(F)cc5)nc5occn45)n3)CC2)cc1 | 196 to 197
29 | CC1(C)CCC(C)(C)c2cc(-c3cc(-c4ccc(C(=O)O)cc4)ccc3O)ccc21 | 240 to 241
30 | N#Cc1ccc2cc3c4c(cccc4c2c1)C(=O)OC3=O | > 320
31 | Cc1cn2cccc(OCc3ccc(F)cc3)c2n1 | 137
32 | Cc1cc(C)c(Oc2ccc(C=NNC(N)=O)cc2)c(C)c1 | 189 to 190
33 | COc1cc2cc(C(=O)N3CC(CCl)c4c3cc(N)c3ncccc43)[nH]c2c(OC)c1OC (centres undefined) | 225 to 227
34 | COc1ccc(-c2oc3cc(OC)cc(O)c3c(=O)c2OC)cc1 | 143 to 145
35 | Nc1nc(N)c2ncn(COCCOC(=O)c3ccccc3)c2n1 | 205
36 | C#CCN1CCN(CC(=O)N2c3ccccc3C(=O)Nc3cccnc32)CC1 | 249 to 250
37 | CC(C)c1ccccc1Sc1c(O)cc(-c2cc(Cl)cc(Cl)c2)oc1=O | 168 to 169
38 | CC1(C)OC(c2ccc(S(C)(=O)=O)cc2Cl)=C(c2ccccc2)C1=O | 89 to 90
39 | COc1cc(OC(=O)c2ccc(OC)c(C34CC5CC(CC(C5)C3)C4)c2)ccc1C(=O)O | 199 to 200
40 | Cn1c(C(F)(F)F)cc(=O)n(-c2cc(OCc3ccccc3)c(Cl)cc2F)c1=O | 129 to 131
41 | CC(C)(C)C(=O)OCn1c(-c2cnn(-c3c(Cl)cc(C(F)(F)F)cc3Cl)n2)nc(C#N)c1C#N | 103 to 104
42 | COC(=O)c1sccc1S(=O)(=O)NC(=O)Nc1nc(C)nc(C)n1 | 158 to 178
43 | OCCCCCCCCCCCCCCCCCCCCCCC(F)(F)C(F)(F)C(F)(F)C(F)(F)F | 69 to 71
44 | O=C(Nc1ccc2ccc(Cl)nc2n1)C1=CSCS1 | 235
45 | Cc1ccc(-c2noc(CC(F)=C(F)F)n2)cc1 | 46 to 50
46 | O=c1[nH]nc(CCc2cc(F)c(C(F)(F)F)c(F)c2)cc1O | 211 to 212
47 | CN(C)c1cccc(-c2nc3ncccc3o2)c1 | 208 to 209
48 | OCc1cccc(-c2cccc(F)c2)c1-c1cccc(F)c1 | 114 to 116
49 | CON1CCC2(CC1)C(O)=C(c1c(C)cc(C)cc1C)C(=O)N2OC1CCCO1 (centres undefined) | 144 to 146
50 | CC(C)(C)OC(=O)N1[C@@H](C(=O)O)CC[C@H]1c1ccccc1 (racemic) | 113 to 117

Row | Compound | melting point [°C]
51 | CN(C)C1(c2ccccc2)CCC2(OCCc3c2[nH]c2ccccc32)C(F)C1 (centres undefined) | 245 to 247
52 | COC(CN(C)C(=O)Nc1nnc(C(C)Oc2cc(Cl)cc(Cl)c2)s1)OC (centres undefined) | 149 to 152
53 | COC(=O)c1c(F)c(F)c(F)c(F)c1C(=O)OC | 68 to 70
54 | COc1nc(-c2ccc3c(c2)OCO3)c2cc3c(cc2n1)OCO3 | 216 to 223
55 | COP(=O)(OC)[C@H](C)NC(=O)[C@H](C)NC(=O)[C@H](C)NC(=O)OCc1ccccc1 | 149 to 151
56 | CNc1noc(C(C)c2cccc(C(=O)c3ccccc3)c2)n1 (centres undefined) | 100 to 101
57 | CCCCCCCCCCOc1ccccc1-c1nc(N)c(N=O)c(=O)[nH]1 | 144 to 146
58 | Sc1nnc(-c2ccc3[nH]ncc3c2)o1 | 283 to 284
59 | Nc1c(C(=O)O)cnn1-c1ccc(C(F)(F)F)cc1 | 169 to 171
60 | COc1ccc(S(C)(=O)=O)cn1 | 85 to 86.5
61 | Cc1cc2c3c(cc(C)c2[nH]c1=O)C(C)C(C)(CN=[N+]=[N-])O3 (centres undefined) | 189 to 192
62 | Cc1c(O)c(Cl)cc(Cl)c1C(=O)O | 135
63 | Oc1nn(-c2ccccc2)cc1CCc1cscn1 | 152 to 153
64 | CCc1noc(-c2cn(-c3cccc(Oc4ccc([N+](=O)[O-])cc4)c3)cn2)n1 | 145 to 146
65 | Nc1ccc(CO)cc1N | 74 to 75
66 | CCOP(=O)(OCC)C(O)=Cc1nn(-c2ccc(F)cc2)cc1-c1ccc(Cl)cc1 | 96 to 98
67 | COCCN1CCN(c2ccc(C(=O)NC3(C(=O)NCC#N)CCCCC3)cc2)CC1 | 166 to 168
68 | CCOC(=O)C1=C(C)NC(=S)NC1c1cccc([N+](=O)[O-])c1 (centres undefined) | 208 to 209
69 | O=C(N[C@H]1CCN(C(=O)c2cc(C(F)(F)F)cc(C(F)(F)F)c2)[C@H](Cc2ccc(Cl)cc2)C1)c1cc(=O)c2ccc(Cl)cc2o1 | 218 to 220
70 | CC(C)(C)OC(=O)Nc1ccc(C#Cc2ccccc2F)cc1NC(=O)CC(=O)c1cccc(C#N)c1 | 216 to 217
71 | CC(=O)Nc1nc2ccc(S(=O)(=O)n3c(COC(C)C(=O)O)cc4nc(Cl)ccc43)cc2s1 (centres undefined) | 257 to 260
72 | CCOC(=O)C1CCc2c(c3ccccc3n2C(=O)c2ccc(C)cc2)C1 (centres undefined) | 70 to 72
73 | COc1ccc(-c2ccc3c(c2)c2cc(Cl)cnc2n3S(=O)(=O)c2ccccc2)cc1 | > 220
74 | CN(Cc1ccccc1)c1cc(=S)ss1 | 138 to 140
75 | Cc1cc(N)nc(CCc2nc3cc(-c4ccc(F)cc4)cnc3[nH]2)c1 | 228

Row | Compound | melting point [°C]
76 | CS(=O)(=O)c1nnc(-c2ccccc2Nc2cccc(C(F)(F)F)c2)o1 | 144 to 148
77 | Cc1cccc(NC(=O)NCC(=O)N(CC(=O)N(C)c2ccccc2Cl)c2ccccc2)c1 | 175
78 | c1ccc2c3c([nH]c2c1)CCN(CCCCc1ccncc1)C3 | 204 to 206
79 | C=CCOC(=O)c1cccc(NC(=O)NCC(=O)Nc2ccccc2C(=O)c2cccs2)c1 | 140 to 141
80 | CCN1CC(COS(=O)(=O)c2ccc(C)cc2)Oc2ccccc21 (centres undefined) | 85 to 87
81 | CC(C)(C)N(NC(=O)c1ccco1)C(=O)c1ccccc1 | 160 to 162
82 | O=C(O)c1ccc(=O)n(CCNC(=O)c2ccncc2)c1 | > 300
83 | Clc1cnc2cnc(Cl)nc2c1 | 177 to 178
84 | CNC(=O)Cc1c(-c2ccccc2)nn2cccnc12 | 211 to 213
85 | CN1CCC(c2cn(S(=O)(=O)c3c(F)cccc3F)c3ccc(OS(=O)(=O)c4c(F)cccc4F)cc23)CC1 | 95 to 98
86 | CC(=O)c1ccc(C(C)=O)s1 | 171 to 173
87 | CCCN(C1=C(O)CC(C2CCCC2)(C2CCCC2)OC1=O)c1cccc(N)c1 | 173 to 175
88 | CC(=CC(=O)O)c1cccc([N+](=O)[O-])c1 | 147 to 149
89 | O=C(O)/C=C/c1cnoc1-c1ccccc1 | 197 to 199
90 | Cc1c(CC(C)(C)C(=O)O)n(Cc2ccc(Cl)cc2)c2ccc(OCc3cccc(-c4ccccc4)n3)cc12 | 137 to 139
91 | COc1cc(C(=N)NO)ccc1-c1cc(-c2ccc(C(=N)NO)cc2OC)on1 | 203 to 204
92 | Cc1ccc2[nH]c(=O)n(C(C)(C)C(=O)O)c(=O)c2c1 | 268 to 271
93 | COCOCc1nc(-c2ccccc2)oc1CCc1ccc(O)cc1 | 102 to 103
94 | CSc1ccc(CN2C(=O)C3(COc4cc5c(cc43)OCO5)c3ccccc32)cc1 (centres undefined) | 128 to 130
95 | O=C(Nc1ccc(F)c(C(F)(F)F)c1)c1cccc2cc(OS(=O)(=O)C(F)(F)F)ccc12 | 171 to 172
96 | O=C(O)c1ccc2cc(-c3cc4ccccc4o3)ccn2c1=O | > 250
97 | CCCCCCCCCCCCCCOc1ccc(CC(=O)O)cc1Cl | 68 to 69
98 | Cc1nn(-c2ccc(C(F)(F)F)cn2)cc1COc1cccc(OC(C)(C)C(=O)O)c1 | 152 to 153
99 | Cc1coc(NC(=O)C2=C(O)c3c(c4ccccc4n3C)S(=O)(=O)N2C)n1 | 128
